# Experimental data taken from ChEMBL document CHEMBL3430912, “GSK Tres Cantos Anti-Kinetoplastid Screening (TCAKS) Data”.
# Tests used:
# Trypanosoma cruzi [1] = assay: GSK_TCAKS: pIC50 Trypanosoma cruzi viability assay using beta-GAL activity. This assay was run at single shot at 5uM compound concentration per well. The biological reagents consisted of NIH-3T3 host cells and trypomastigotes parasitic cells; both cell types were set to a 3.3 * 10^5 cells/mL dilution in assay DMEM by means of a CASY cell counter device using a 60um capillary. 6 uL of the mixture were dispensed per well (about 1 * 10^3 host-cells and 1 * 10^3 parasites) with a Multidrop Combi dispenser. […] In all wells, the percentage of DMSO never exceeded 0.5%. Plates incubated for four days at 37C, 5% CO2. The substrate used for the assay fluorescence intensity (FLINT) readout was resorufin-beta-D-galactopiranoside (Sigma-Aldrich) at 5uM per well. It was diluted in PBS supplemented with the soft detergent Igepal (Fluka).; type: functional, organism-based, Mus musculus; details: Tulahuen, NIH3T3
# Trypanosoma cruzi [2] = assay: (§1) GSK_TCAKS: pIC50 Trypanosoma cruzi Imaging: Infected Cells. […] Cells were then washed once with PBS before infection. T. cruzi trypomastigotes, collected at days 5 to 8 after infection from LLC-MK2 parasite infected cultures, were allowed to swim out for 4h at 37C from a centrifuged pellet (2,500 rpm/10 min/room temperature). Trypomastigotes were then collected and counted in a CASY Cell Counter. Trypomastigotes, in supplemented DMEM, were added to H9c2 cultures in a multiplicity of infection of 1 and incubated for 18 h. Cells were washed once with PBS before incubation of the infected H9c2 monolayer with trypsin (Life-Technologies) to detach cells from the flask. Cells were counted in a CASY Cell Counter using a 150 um capillary and their density set at 5 * 10^4 cells per mL in supplemented assay DMEM. Infected H9c2 were dispensed into 384-well poly-lysine coated assay plates at 50uL per well using a Multidrop Combi dispenser. After seeding them, the plates were incubated at 37C, 5% CO2 for 72h. Cultures were then fixed and stained by addition of 50 uL of a solution containing 8% formaldehyde and 4 uM DRAQ5 DNA dye (BioStatus, UK) per well. […] Five images were collected per well for reliable statistical analysis. Automated image analysis was performed with a script developed on Acapella High Content Imaging and Analysis Software (PerkinElmer). Output: percentage of infected cells per well as a second infection marker.; type: functional, organism-based, Rattus norvegicus; details: H9c2, 4 h
# Trypanosoma cruzi [3] = assay: GSK_TCAKS: pIC50 Trypanosoma cruzi Imaging: Amastigotes/Cell. […] Cells were then washed once with PBS before infection. T. cruzi trypomastigotes, collected at days 5 to 8 after infection from LLC-MK2 parasite infected cultures, were allowed to swim out for 4h at 37C from a centrifuged pellet (2,500 rpm/10 min/room temperature). Trypomastigotes were then collected and counted in a CASY Cell Counter. Trypomastigotes, in supplemented DMEM, were added to H9c2 cultures in a multiplicity of infection of 1 and incubated for 18 h. Cells were washed once with PBS before incubation of the infected H9c2 monolayer with trypsin (Life-Technologies) to detach cells from the flask. Cells were counted in a CASY Cell Counter using a 150 um capillary and their density set at 5 * 10^4 cells per mL in supplemented assay DMEM. Infected H9c2 were dispensed into 384-well poly-lysine coated assay plates at 50uL per well using a Multidrop Combi dispenser. After seeding them, the plates were incubated at 37C, 5% CO2 for 72h. Cultures were then fixed and stained by addition of 50 uL of a solution containing 8% formaldehyde and 4 uM DRAQ5 DNA dye (BioStatus, UK) per well. […] Five images were collected per well for reliable statistical analysis. Automated image analysis was performed with a script developed on Acapella High Content Imaging and Analysis Software (PerkinElmer). Output: number of amastigotes per cell as infection level measurement.; type: functional, organism-based, Rattus norvegicus; details: H9c2, 4 h
# Trypanosoma cruzi [4] = assay: as §1, with “H2C9” for “Trypanosoma cruzi”, “H9c2 Host Cardiomyocytes.” for “Infected Cells.”, “Number” for “percentage”, “H9c2 Host Cardiomyocytes nuclei to determine drug-related cytotoxicity.” for “infected cells per well as a second infection marker.”; type: functional, organism-based, Rattus norvegicus; details: H9c2, 4 h
# Leishmania donovani [5] = assay: GSK_TCAKS: pIC50 Leishmania donovani viability assay using fluorescence intensity. Assay plates (1536-well) were prepared by adding 30nL per well of compound. For single shot assay, the final compound concentration was 5uM. […] Briefly, eGFP LdBOB axenic amastigotes were harvested, fixed and counted in a CASY cell counter (Roche-Applied Science). A final concentration of 1.5 * 10^5 cells per well were prepared in amastigote media containing 500 U/mL penicillin/streptomycin (Invitrogen) and 6uL was dispensed to each experimental well using a Multidrop Combi dispenser (Thermo Scientific). 6uL of assay media was dispensed to control columns used as reference for 100% compound response. Following incubation for 72 h at 37C, 5% CO2, 2 uL of resazurin was added to each well at a final concentration of 0.5 mM in phosphate buffered saline (PBS) with IGEPAL (Sigma-Aldrich), 0.05% (v/v).; type: functional, organism-based
# Leishmania donovani [6] = assay: (§2) GSK_TCAKS: pIC50 Leishmania donovani Imaging: Infected Macrophages. Assay plates (384-well) were prepared by adding 250nL of compound to each well. For single shot assay, the final compound concentration was 5 uM. […] Automated image analysis was performed with a script developed on Acapella High Content Imaging and Analysis Software (PerkinElmer). Output: Percent of infected macrophage cells were reported for each well.; type: functional, organism-based, Homo sapiens; details: THP-1
# Leishmania donovani [7] = assay: as §2, with “Amastigotes/Macrophages.” for “Infected Macrophages.”, “Average number” for “Percent”, “amastigotes per” for “infected”, “cell” for “cells”; type: functional, organism-based, Homo sapiens; details: THP-1
# Leishmania donovani [8] = assay: as §2, with “THP-1 Host” for “Infected”, “THP-1 cell count” for “Percent of infected macrophage cells”; type: functional, organism-based, Homo sapiens
# [9] = test system: Trypanosoma brucei brucei; assay: GSK_TCAKS: pIC50 Trypanosoma brucei viability assay using fluorescence intensity. Assay plates (1536-well) were prepared by dispensing 25nL of compound solution per well using an Echo acoustic dispenser (Labcyte).; type: functional, organism-based; details: Lister 427, 2 h
# [10] = test system: Trypanosoma brucei brucei; assay: GSK_TCAKS: pIC50 Trypanosoma brucei viability assay using luminiscence. Assay plates (1536-well) were prepared. T. brucei cultures were harvested and counted in a CASY cell counter. A parasite suspension was prepared at a final concentration of 5 * 10^4 cells/mL in complete HMI9 medium and 6uL was dispensed to all wells containing compounds using a Multidrop Combi dispenser. 6uL of HMI9 media with 0.4% DMSO were dispensed to control columns. Plates were incubated for 24 h at 37C, 5% CO2 then tempered for 10 min at room temperature. ATP content was quantified by adding 4 uL of CellTiter-Glo Reagent (Promega) according to the manufacturer's instructions. Luminescence was measured using a ViewLux.; type: functional, organism-based; details: Lister 427, CASY
# [11] = GSK_TCAKS: pIC50 HepG2 human cell line viability assay using luminiscence. […] Seeding density was checked to ensure that new mono-layers were not more than 50% confluent at the time of harvesting. Cell suspension was added to 500 mL of the same medium at a final density of 1.2 * 10^5 cells/mL. This cell suspension was dispensed (25 uL, 3000 cells per well) into 384-well clear-bottom plates using a Multidrop Combi dispenser. Prior to addition of the cell suspension, the screening compounds (250 nL) were pre-dispensed into the plates with an Echo liquid handler. Plates were incubated for 48 h at 37C, 5% CO2. After incubation, plates equilibrated at room temperature for 30 min before proceeding to develop the luminescent signal. The signal developer, CellTiter-Glo Reagent, was allowed to equilibrate at room temperature for 30 min and added to the plates (25uL per well) using a Multidrop Combi dispenser. Plates were left for 10 min at room temperature for stabilization and then read using a ViewLux.; type: toxicity, cell-based
# [12] = target: Sterol 14-alpha demethylase (Trypanosoma cruzi (strain CL Brener), UniProt Q7Z1V1); assay: GSK_TCAKS: pIC50 CYP51 from Trypanosoma cruzi.; type: functional
# Sequence of Sterol 14-alpha demethylase (Q7Z1V1 whole entry): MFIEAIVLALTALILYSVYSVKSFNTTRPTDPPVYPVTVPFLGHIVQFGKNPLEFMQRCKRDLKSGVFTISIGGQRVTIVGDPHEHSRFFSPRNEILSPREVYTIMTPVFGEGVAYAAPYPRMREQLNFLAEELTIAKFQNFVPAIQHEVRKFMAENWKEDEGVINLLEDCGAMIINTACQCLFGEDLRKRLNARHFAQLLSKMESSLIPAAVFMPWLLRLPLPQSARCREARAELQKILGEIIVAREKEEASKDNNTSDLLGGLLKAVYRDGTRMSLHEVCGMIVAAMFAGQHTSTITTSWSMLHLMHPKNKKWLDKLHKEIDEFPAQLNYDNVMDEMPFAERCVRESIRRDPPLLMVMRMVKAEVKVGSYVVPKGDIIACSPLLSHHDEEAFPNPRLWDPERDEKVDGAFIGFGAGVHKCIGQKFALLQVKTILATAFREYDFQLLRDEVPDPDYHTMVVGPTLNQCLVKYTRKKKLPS
SMILES,IC50 (Trypanosoma cruzi [1]),IC50 (Trypanosoma cruzi [2]),IC50 (Trypanosoma cruzi [3]),IC50 (Trypanosoma cruzi [4]),IC50 (Leishmania donovani [5]),IC50 (Leishmania donovani [6]),IC50 (Leishmania donovani [7]),IC50 (Leishmania donovani [8]),IC50 [9],IC50 [10],IC50 at 48 h [11],IC50 [12]
CCOc1cc(NCCCN2CCN(C)CC2)c2ncccc2c1,1.78 µM,1.26 µM,1 µM,31.6 µM,39.8 µM,1.26 µM,0.794 µM,6.31 µM,12.6 µM,20 µM,31.6 µM,> 100 µM
Cc1cc(-c2cccc3ccccc23)nc2nc(N)nc(N)c12,39.8 µM,> 50.1 µM,31.6 µM,> 50.1 µM,2 µM,5.01 µM,1 µM,50.1 µM,31.6 µM,20 µM,50.1 µM,> 100 µM
N#Cc1ccc(Br)cc1[N+](=O)[O-],0.251 µM,0.794 µM,0.0631 µM,39.8 µM,7.94 µM,20 µM,12.6 µM,25.1 µM,0.158 µM,0.2 µM,20 µM,50.1 µM
COc1ccc([N+](=O)[O-])cc1NC(=O)c1cc(Cl)ccc1O,31.6 µM,15.8 µM,7.94 µM,> 50.1 µM,7.94 µM,2 µM,1.58 µM,10 µM,25.1 µM,25.1 µM,10 µM,> 100 µM
O=C(Nc1ccccc1C(=O)Nc1ccccn1)c1ccco1,> 50.1 µM,> 50.1 µM,> 50.1 µM,> 50.1 µM,> 50.1 µM,> 50.1 µM,> 50.1 µM,> 50.1 µM,0.251 µM,0.501 µM,> 100 µM,> 100 µM
COc1cccc(Nc2cc(C)nc(-c3ccccn3)n2)c1,3.16 µM,12.6 µM,7.94 µM,5.01 µM,3.98 µM,2 µM,1.26 µM,> 50.1 µM,> 39.8 µM,> 39.8 µM,50.1 µM,> 100 µM
CCCCn1c(=O)c2c(N)onc2n(CCCC)c1=O,25.1 µM,31.6 µM,25.1 µM,25.1 µM,> 50.1 µM,> 50.1 µM,31.6 µM,> 50.1 µM,0.631 µM,0.501 µM,50.1 µM,79.4 µM
Nc1nccc(-c2csc(Nc3ccc(Cl)cc3)n2)n1,1.26 µM,> 50.1 µM,> 50.1 µM,2 µM,3.98 µM,1 µM,1 µM,> 50.1 µM,> 39.8 µM,> 39.8 µM,> 100 µM,1.26 µM
NS(=O)(=O)c1ccc(Nc2nccc(-c3cnn4ncccc34)n2)cc1,2.51 µM,15.8 µM,0.794 µM,0.316 µM,0.794 µM,2 µM,1 µM,0.251 µM,0.0794 µM,0.158 µM,> 100 µM,> 100 µM
CC(=O)Nc1ccc(Nc2nccc(-c3cnn4ncccc34)n2)cc1C(F)(F)F,0.0501 µM,0.501 µM,0.2 µM,0.0631 µM,0.2 µM,0.0251 µM,0.0158 µM,0.01 µM,0.0316 µM,0.0501 µM,> 100 µM,31.6 µM
O=C1OCc2ccc(Nc3nccc(-c4cnn5ncccc45)n3)cc21,0.0251 µM,0.0631 µM,0.0316 µM,0.0251 µM,0.0631 µM,0.0158 µM,0.0126 µM,0.00794 µM,0.00398 µM,0.02 µM,> 100 µM,> 100 µM
Fc1ccc(Nc2nc(-c3ccccn3)cs2)cc1,2.51 µM,5.01 µM,5.01 µM,1 µM,20 µM,10 µM,6.31 µM,> 50.1 µM,25.1 µM,25.1 µM,> 100 µM,15.8 µM
O=c1nc(NCCCNCc2cc(Br)cc(Br)c2)[nH]c2ccsc12,0.631 µM,0.631 µM,0.398 µM,25.1 µM,15.8 µM,5.01 µM,2.51 µM,15.8 µM,0.1 µM,0.1 µM,50.1 µM,31.6 µM
O=c1cc(NCCCNCc2c[nH]c3ccc(Br)cc23)[nH]c2ccccc12,> 50.1 µM,> 50.1 µM,31.6 µM,> 50.1 µM,> 50.1 µM,> 50.1 µM,> 50.1 µM,> 50.1 µM,1 µM,0.794 µM,> 100 µM,> 100 µM
Cc1cc(Br)sc1CNCCCNc1cc(=O)c2ccccc2[nH]1,1.58 µM,0.794 µM,0.501 µM,25.1 µM,> 50.1 µM,25.1 µM,20 µM,20 µM,0.0631 µM,0.1 µM,39.8 µM,63.1 µM
O=C(NCC1CCCCN1C(=O)c1cccc2ccccc12)c1ccccc1 (stereo unspecified),6.31 µM,5.01 µM,3.16 µM,> 50.1 µM,> 50.1 µM,> 50.1 µM,> 50.1 µM,> 50.1 µM,0.398 µM,0.398 µM,> 100 µM,> 100 µM
O=c1cc(NCCCNCc2cc(C(F)(F)F)cs2)[nH]c2ccccc12,7.94 µM,> 50.1 µM,5.01 µM,31.6 µM,> 50.1 µM,39.8 µM,25.1 µM,20 µM,0.316 µM,0.398 µM,63.1 µM,25.1 µM
Oc1c(-c2nnc(CCc3ccccc3)[nH]2)ncc2cccnc12,0.2 µM,0.2 µM,0.2 µM,15.8 µM,0.316 µM,3.98 µM,3.16 µM,20 µM,0.794 µM,1.58 µM,39.8 µM,> 100 µM
